In patent US7659293B2, “α-Amino-N-hydroxy-acetamide derivatives” (Novartis AG, priority 2001, dated 2010) one finds IC50 data, which are given here for one molecule.

By IC50 is commonly meant the concentration that gives 50% inhibition. A higher IC50 goes with weaker potency in that assay.

Counter-ions that a name gives are not always drawn.

In the experiment the target is T1, MMP9 (Gelatinase-B) (Homo sapiens, UniProt P14780).
T1 construct: endogenous in cells; host or cells: THP1 human monocytic leukemia cells, TPA-stimulated; purified from culture medium
The experiment can be described thus: Assay of MMP9 (fluorogenic peptide). It counts as biochemical. Particulars: mean ± SEM of three independent experiments. On the procedure: MMP9 is prepared form the culture medium of THP1 human monocytic leukemia cells treated with TPA. THP1 cells are maintained in a culture of DMEM/F-12 with 10% FCS and stimulated to produce pro-MMP9 with TPA (1 nM) in serum-free medium for 48 h. All purification procedures are carried out at 4° C. The 1 liters of culture medium is concentrated to 100 ml by Centricon (Amicon) and applied to a column (1×8 cm) of gelatin-sepharose (Pharmacia) equilibrated with 50 mM Tris-Cl (pH=8.0), 300 mM NaCl. The fraction containing pro-MMP-9 is eluted with 10% DMSO in 50 mM Tris-Cl (pH=8.0), 300 mM NaCl, then dialyzed against 50 mM Tris-Cl (pH 7.5), 150 mM NaCl. The fraction is concentrated by Centricon and subjected to column chromatography of Sephadex G200 (2×20 cm) equilibrated with 50 mM Tris-Cl (pH=7.5) containing 150 mM NaCl. The purified Pro-MMP9 is stored at −80° C. as a stock and the necessary amount of pro-form is used for activation. Pro-MMP9 is activated with 1 mM aminophenyl mercury acetate (APMA, ICN Pharmaceuticals) in 50 mM Tris-Cl (pH=7.5) containing 150 mM NaCl, 10 mM CaCl2 and 0.05% Brij-35 (MMP Assay Buffer) for 18 h at 37° C., and the APMA is removed by extensive dialysis against MMP Assay Buffer. […]
The activated MMP-9 (82 kDa) is then used to screen compounds. […] The increase of fluorescence is monitored at 460 nm with excitation at 355 nm. […]

T1 sequence (P14780 107-707 limits assumed): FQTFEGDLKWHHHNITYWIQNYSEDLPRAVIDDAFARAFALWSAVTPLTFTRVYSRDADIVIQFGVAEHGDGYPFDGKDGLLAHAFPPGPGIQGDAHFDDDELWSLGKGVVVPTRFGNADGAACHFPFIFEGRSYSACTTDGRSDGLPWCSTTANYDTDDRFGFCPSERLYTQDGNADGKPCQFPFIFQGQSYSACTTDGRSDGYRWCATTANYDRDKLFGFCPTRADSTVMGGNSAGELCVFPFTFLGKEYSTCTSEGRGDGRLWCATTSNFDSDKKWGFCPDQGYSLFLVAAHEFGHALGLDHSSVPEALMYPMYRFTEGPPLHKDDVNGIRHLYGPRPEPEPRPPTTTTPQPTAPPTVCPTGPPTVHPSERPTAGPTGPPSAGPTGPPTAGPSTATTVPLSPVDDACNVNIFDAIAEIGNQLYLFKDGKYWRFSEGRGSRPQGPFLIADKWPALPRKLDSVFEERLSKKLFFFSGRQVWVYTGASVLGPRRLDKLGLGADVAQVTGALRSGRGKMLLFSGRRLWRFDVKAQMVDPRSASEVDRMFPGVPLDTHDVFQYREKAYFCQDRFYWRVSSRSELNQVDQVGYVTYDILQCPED

Regarding `CN(C)c1ccc(CN(CC(=O)NO)S(=O)(=O)c2ccc(OCC3CC3)cc2)cc1` [Example 2, 2-[(4-Cyclopropylmethoxy-benzenesulfonyl)-(4-dimethylamino-benzyl-amino]-N-hydroxy-acetamide HCl salt], the IC50 stood at 2.57 ± 0.27 nM.
